{"source": "patent US6562332B2", "about": "“Attractants of beneficial insects” (Iowa State University Research Foundation, Inc., priority 1999, dated 2003)", "key": {"[1]": {"test_system": "antennae of Chrysoperla carnea", "assay": "Electroantennogram (EAG) responses of Chrysoperla carnea antennae", "details": "for EAG response: C. carnea antennae", "procedure": "(§1) Both sexes of C. maculata were handled vigorously, and pressed against a piece of filter paper (Whatman, No. 1), resulting in reflex bleeding production of orange colored fluid excreted through the joints of the legs, that was absorbed into the filter paper. Fluids from 20 beetles were collected. The filter paper used for the collection was then cut into small pieces and placed in a 2-ml vial and extracted with 200 μl of hexane for one hour. A volume of 10 μl of the concentrated extract was used for EAG tests.\n(§2) Corn (Pioneer, Hybrid 3489) was grown in the greenhouse under approx. 25° C. and 75% humidity, with natural light supplemented by 400 Watt high pressure sodium lights. The three-leaf stage of plants was used for volatile collections, because this life stage is infested by corn leaf aphids (Bing, J. W., et al., 1992, J. Econ. Entomol.21:223-234) and it is also a stage searched by these predatory species. Corn leaves were removed from plants, and ca. 15 g placed in a 0.5-1 glass collector with two openings on each side. A stream of purified air passing through a freshly activated charcoal filter was blown into the inlet of the collector, through the corn leaves, then exited through the outlet connected to a Tenax trap. The trap consisted of a Pasteur pipette (5 cm long and 0.5 cm diameter) packed with 300 mg of Tenax (20-35 mesh, Alltech, Ill.). The flow rate of the air was 150 ml/min from the outlet of the Tenax trap, and the volatiles were collected for 18 hours. The trapped volatiles were eluted with HPLC-grade hexane. The extracts from three collections were combined and concentrated to 100 μl. Ten microliters of extracts were used for each EAG test.\n(§3) Dried seeds and flowers of catnip, Nepeta cataria, were purchased from a local pet store. For EAG tests, approx. 0.2 mg of dried plant material was homogenized, then extracted by adding 500 μl of hexane. The extract was poured through a funnel with filter paper (Whatman No.1), and the residue was discarded. The extract was concentrated to 100 μl, under a mild stream of N2. The extract was then stored at −20° C. until used in EAG tests.\n(§4) EAG recordings were made by connecting an electrogel-filled (Spectro 360, Parker Laboratory, New Jersey) glass-pipette Ag/AgCl electrode to the head of an excised beetle or lacewing. A recording electrode filled with the same electrogel connected to a high-impedance DC amplifier with automatic baseline drift compensation, was placed in contact with the tip of their antennae (intact). Antennal responses to various chemical stimuli were first recorded for a series of commercial synthetic compounds representing known corn leaf volatiles. Then, male and female body extracts of C. maculata, reflex bleeding extracts, aphid alarm pheromone and catnip extracts were tested. A second series of EAG tests was then conducted including dose-response series using selected EAG-active compounds from the first test. Serial dilutions of the tested compounds were made in redistilled HPLC-grade hexane at dosages ranging from 0.1 μg to 1000 μg, except α-terpineol, for which methylene chloride was used. The tested compounds and extracts were applied to filter-paper strips (0.5×2.5 cm, Whatman No.1) in 10 μl of solvent, except as otherwise noted. The filter-paper strips were inserted into Pasteur pipettes (15 cm long). Control puffs of air were applied after each puff of a test stimulus. The response to the air puff was used to normalize beetle or lacewing responses relative to the tested stimuli. The average EAG response to the air puff from antennae of C. maculata and C. carnea was 0.05±0.003 mV (n=30) and 0.02±0.001 mV (n=27), respectively. The relative EAG response of each stimulus was normalized by dividing the amplitude of the test stimulus by the mean of the response to the control puff. The sequence of exposure of each stimulus to each antenna was randomly defined."}, "[2]": {"test_system": "antennae of Coleomegilla maculata", "assay": "Electroantennogram (EAG) responses of Coleomegilla maculata antennae", "details": "for EAG response: C. maculata antennae, both sexes; for EAG response threshold of female antennae: C. maculata female antennae versus male; for EAG response threshold of female antennae / dose at which EAG of male antennae reached saturation / dose eliciting significant EAG responses from female antennae: dose-response; for dose at which EAG saturation occurred / minimum dose for a significant EAG response: both male and female antennae; for dose eliciting significant EAG responses from female antennae: C. maculata female antennae", "procedure": "Adults of both sexes were anesthetized by placing them at −20° C., then the abdomen and elytra of adults were cut off with a pair of fine scissors. Dissecting tools were rinsed with acetone several times between dissections to avoid cross-contamination. The dissected parts were extracted in a 1-ml vial containing 500 μl of hexane for two hours. Ten males and females were dissected and extracted. The extracts were concentrated to 200 μl under a mild stream of N2. Approximately 20 μl of the extracts, equivalent to one adult, was used for the EAG tests.\nas §1, §2, §3\nas §4, with “The response to the air puff was used to normalize beetle or lacewing responses relative to the tested stimuli. The average EAG response to the air puff from antennae of C. maculata and C. carnea was 0.05±0.003 mV (n=30) and 0.02±0.001 mV (n=27), respectively. The relative EAG response of each stimulus was normalized by dividing the amplitude of the test stimulus by the mean of the response to the control puff. The sequence of exposure of each stimulus to each antenna was randomly defined.” left out"}, "Coleomegilla maculata": {"test_system": "Coleomegilla maculata", "assay": "Field trapping test in an alfalfa field, C. maculata catches", "assay_type": "in vivo", "details": "traps baited with 50 mg", "procedure": "(§5) A field trapping test was conducted in an alfalfa field in Ames, Iowa. Synthetic compounds at a dose of 50 mg were prepared in hexane or methylene chloride. Medical peerless cotton rolls (5 cm long, 100% cotton) were used as dispensers, and the traps used were similar to the Rebell Trap (Great Lakes IPM, Mich.). The trap was hung from the bent end of an electric farm post, 1.2 m above the ground. Within a replicate (N=3), traps were set at least 10 m apart. The traps were checked daily, and trap position within a series was randomized to minimize the effects of habitat heterogenity."}, "Hippodamia convergens": {"test_system": "Hippodamia convergens", "details": "behavioral test; cited from earlier work"}, "[3]": {"test_system": "Coccinella septempunctata", "details": "Nakamuta 1991; cited from earlier work"}, "Harmonia axyridis": {"test_system": "Harmonia axyridis", "details": "behavioral test; cited from earlier work"}, "C. cognata": {"test_system": "C. cognata", "details": "Boo et al. 1998; cited from earlier work"}, "Chrysoperla carnea": {"test_system": "Chrysoperla carnea", "assay": "Field trapping test in an alfalfa field, C. carnea catches", "assay_type": "in vivo", "details": "traps baited with 50 mg", "procedure": "as §5"}, "C. carnea": {"test_system": "C. carnea", "details": "earlier study, Flint et al. 1979; cited from earlier work"}}, "note": "Entries after “also recorded” stand apart in the source; their conditions may differ.", "data": [{"smiles": "CC/C=C\\CCO", "note": "[(Z)-3-hexenol, (Z)-Hexenol]", "values": [{"measurement": "EAG response", "setting": "[1]; both sexes", "result": "relatively lower EAG responses"}, {"measurement": "EAG response", "setting": "[2]", "result": "EAG responses"}, {"measurement": "EAG response threshold of female antennae", "setting": "[2]", "result": "higher thresholds"}]}, {"smiles": "C=CC(=C)CC/C=C(\\C)CCC=C(C)C", "note": "[(E)-β-farnesene, (E)-β-Farnesene]", "values": [{"measurement": "EAG response", "setting": "[1]; both sexes", "result": "significant response; also recorded: increased with increasing doses; also recorded: highly sensitive; also recorded: most strongly"}, {"measurement": "dose of highest EAG response", "setting": "[1]; C. carnea, both sexes, dose-response", "result": 1000, "unit": "µg"}, {"measurement": "trap catches / attraction of C. maculata in field test", "setting": "Coleomegilla maculata", "result": "no differences in catches"}, {"measurement": "EAG response", "setting": "[2]", "result": "significantly higher; also recorded: highest EAG responses"}, {"measurement": "EAG response of male antennae", "setting": "[2]; C. maculata male antennae", "result": "as high as those in response to aphid sex pheromone"}, {"measurement": "dose at which EAG of male antennae reached saturation", "setting": "[2]; C. maculata male antennae", "result": 100, "unit": "µg"}, {"measurement": "attraction of Hippodamia convergens", "setting": "Hippodamia convergens", "result": "attracted"}, {"measurement": "searching behaviors of Coccinella septempunctata", "setting": "[3]", "result": "does not elicit searching behaviors"}, {"measurement": "attraction of Harmonia axyridis", "setting": "Harmonia axyridis", "result": "attracted"}]}, {"smiles": "CC1=CO[C@@H](O)[C@H]2[C@@H]1CC[C@@H]2C", "note": "[(1R,4aS,7S,7aR)-nepetalactol, reference compound]", "values": [{"measurement": "EAG response", "setting": "[1]; both sexes", "result": "responded; also recorded: significant EAG responses"}, {"measurement": "EAG response", "setting": "[2]", "result": "responded; also recorded: significant EAG responses"}, {"measurement": "dose at which EAG saturation occurred", "setting": "[2]; C. maculata", "result": 100, "unit": "µg"}, {"measurement": "minimum dose for a significant EAG response", "setting": "[2]; C. maculata", "result": 100, "unit": "µg"}]}, {"smiles": "CC1=COC(=O)[C@H]2[C@@H]1CC[C@@H]2C", "note": "[(4aS,7S,7aR)-nepetalactone, reference compound]", "values": [{"measurement": "EAG response", "setting": "[1]; both sexes", "result": "responded; also recorded: significant EAG responses"}, {"measurement": "EAG response of female antennae", "setting": "[1]; C. carnea female antennae", "result": "greater"}, {"measurement": "attraction of adult C. cognata in the field", "setting": "C. cognata", "result": "attracted"}, {"measurement": "EAG response", "setting": "[2]", "result": "responded; also recorded: relatively higher EAG response; also recorded: significant EAG responses"}, {"measurement": "EAG response threshold of female antennae", "setting": "[2]", "result": "higher thresholds"}, {"measurement": "dose at which EAG saturation occurred", "setting": "[2]; C. maculata", "result": 100, "unit": "µg"}, {"measurement": "minimum dose for a significant EAG response", "setting": "[2]; C. maculata", "result": 100, "unit": "µg"}]}, {"smiles": "C=C1CC/C=C(\\C)CC[C@@H]2[C@@H]1CC2(C)C", "note": "[β-caryophyllene, β-Caryophyllene]", "values": [{"measurement": "trap catches / attraction of C. carnea in field test", "setting": "Chrysoperla carnea", "result": "low catches"}, {"measurement": "EAG response", "setting": "[1]; both sexes", "result": "relatively low EAG response"}, {"measurement": "attraction of adults of C. carnea in the field", "setting": "C. carnea", "result": "acts as an attractant"}, {"measurement": "EAG response", "setting": "[2]", "result": "highest EAG responses"}]}, {"smiles": "CC1=CCC(C(C)(C)O)CC1", "note": "(stereo not drawn) [α-terpineol, α-Terpineol]", "values": [{"measurement": "EAG response", "setting": "[1]; both sexes", "result": "relatively lower EAG responses"}, {"measurement": "trap catches / attraction of C. maculata in field test", "setting": "Coleomegilla maculata", "result": "Significant catches"}, {"measurement": "trap catches / attraction of C. maculata in field test", "setting": "Coleomegilla maculata; listed as a-terpineol", "result": "attracted"}, {"measurement": "EAG response", "setting": "[2]", "result": "significantly higher; also recorded: highest EAG responses"}, {"measurement": "EAG response threshold of female antennae", "setting": "[2]", "result": "higher thresholds"}, {"measurement": "dose eliciting significant EAG responses from female antennae", "setting": "[2]", "result": 10, "unit": "µg"}, {"measurement": "dose at which EAG of male antennae reached saturation", "setting": "[2]; C. maculata male antennae", "result": 100, "unit": "µg"}]}, {"smiles": "OCCc1ccccc1", "note": "[2-phenylethanol, 2-Phenylethanol]", "values": [{"measurement": "trap catches / attraction of C. carnea in field test", "setting": "Chrysoperla carnea", "result": "significantly attracted; also recorded: highly attractive"}, {"measurement": "EAG response", "setting": "[1]; both sexes", "result": "significant response; also recorded: highly sensitive; also recorded: most strongly"}, {"measurement": "dosage eliciting significant EAG responses", "setting": "[1]; C. carnea, antennae of both sexes", "result": 10, "unit": "µg"}, {"measurement": "trap catches / attraction of C. maculata in field test", "setting": "Coleomegilla maculata", "result": "significantly attracted; also recorded: highly attractive"}, {"measurement": "EAG response", "setting": "[2]", "result": "significantly higher; also recorded: highest EAG responses"}, {"measurement": "dose eliciting significant EAG responses from female antennae", "setting": "[2]", "result": 10, "unit": "µg"}]}, {"smiles": "CCCCCCO", "note": "[hexanol, 1-Hexanol]", "values": [{"measurement": "EAG response", "setting": "[2]", "result": "EAG responses"}]}, {"smiles": "C=CC(O)CCCCC", "note": "(stereo not shown) [1-octen-3-ol, 1-Octen-3-ol]", "values": [{"measurement": "EAG response", "setting": "[2]", "result": "EAG responses"}, {"measurement": "difference in EAG response between male and female antennae", "setting": "[2]; C. maculata, male relative to female", "result": "significantly higher EAG response; also recorded: Sexual differences"}]}]}
